# Biological target: T1, NK1 -receptor (substance P-receptor) (Homo sapiens, UniProt P25103)
# T1 construct: intact human lymphoblastoma cells (IM-9) which express NK1 -receptors; endogenous in cells; host or cells: IM-9 human lymphoblastoma cells
# Experiment: NK1-receptor affinity: displacement of 125I labelled substance P on intact human lymphoblastoma cells (IM-9)
# Format: binding
# Conditions: Ki, intact human lymphoblastoma cells (IM-9) expressing NK1-receptors
# Experimental: The receptor affinity for the NK1 -receptor (substance P-receptor) was determined on intact human lymphoblastoma cells (IM-9) which express NK1 -receptors, and the displacement of ^125 I labelled substance P was measured.
# T1 sequence (P25103 whole entry): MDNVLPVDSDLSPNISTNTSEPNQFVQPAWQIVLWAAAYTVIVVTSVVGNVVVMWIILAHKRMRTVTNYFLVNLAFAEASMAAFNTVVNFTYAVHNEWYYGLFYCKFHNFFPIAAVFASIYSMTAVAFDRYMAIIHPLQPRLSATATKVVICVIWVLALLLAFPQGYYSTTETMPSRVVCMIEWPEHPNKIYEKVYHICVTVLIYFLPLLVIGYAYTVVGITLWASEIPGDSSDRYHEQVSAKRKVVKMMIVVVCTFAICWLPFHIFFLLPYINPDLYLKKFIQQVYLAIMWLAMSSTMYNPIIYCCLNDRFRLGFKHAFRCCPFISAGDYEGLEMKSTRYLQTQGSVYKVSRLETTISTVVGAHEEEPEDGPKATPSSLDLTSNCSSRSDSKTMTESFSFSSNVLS
row,SMILES,Ki [nM]
1,"COc1ccccc1C(CNC(=O)Cc1ccc(Cl)cc1)N1CCN(C2CCCCC2)CC1 (stereo not drawn) [Example 61, N-[2-(2-Methoxyphenyl)-2-(4-cyclohexylpiperazine-1-yl)-ethyl]-2-(4-chlorophenyl)-acetamide]",851

# Same assay, conditions: intact human lymphoblastoma cells (IM-9) expressing NK1-receptors, read-out: Ki
row,SMILES,Ki [nM]
1,"COc1ccccc1C(CNC(=O)c1cc(C(F)(F)F)cc(C(F)(F)F)c1)N1CCN(C2CCCCC2)CC1 (stereo not drawn) [Example 67, N-[2-(2-Methoxyphenyl)-2-(4-cyclohexylpiperazine-1-yl)-ethyl]-3,5-bistrifluoromethylbenzamide]",14
2,"COc1ccccc1C(CNCc1cc(C(F)(F)F)cc(C(F)(F)F)c1)N1CCC(c2c[nH]c3ccccc23)CC1 (stereo not drawn) [Example 97, 3,5-Bistrifluoromethylbenzyl-(2-(2-methoxyphenyl)-2-(4-(3-indolyl)-piperidine-1-yl)-ethyl]-amine]",300
3,"COc1ccccc1C(CNC(=O)c1cc(C(F)(F)F)cc(C(F)(F)F)c1)N1CCN(C2CCCCC2)CC1 (stereo not drawn) [Example 58, N-[2-(2-Methoxyphenyl)-2-(4-cyclohexylpiperazine-1-yl)-ethyl]-3,5-bistrifluoromethylbenzamide]",23
4,"COc1ccccc1NC(=O)NCC(c1ccccc1)N1CCN(C2CCCCC2)CC1 (stereo not drawn) [Example 114, N-2-Methoxyphenyl-N'-[2-phenyl-2-(4-cyclohexylpiperazine-1-yl)-ethyl]-urea]",490
5,"COc1ccccc1C(CNCCc1cc(C(F)(F)F)cc(C(F)(F)F)c1)N1CCN(C2CCCCC2)CC1 (stereo not drawn) [Example 66, 2-(3,5-Bistrifluoromethylphenyl)-2'-(2-methoxyphenyl)-2'-(4-cyclohexylpiperazine-1-yl)-diethylamine]",23
6,"COc1ccccc1C(CNCc1cc(C(F)(F)F)cc(C(F)(F)F)c1)N1CCC(C2CCCCC2)CC1 (stereo not drawn) [Example 89, 3,5-Bistrifluoromethylbenzyl-[2-(2-methoxyphenyl)-2-(4-cyclohexylpiperidine-1-yl)-ethyl]-amine]",80
7,"COc1ccccc1C(CNC(=O)c1cc(C(F)(F)F)cc(C(F)(F)F)c1)N1CCCCC1 (stereo not drawn) [Example 75, N-[2-(2-Methoxyphenyl)-2-piperidin-1-yl-ethyl]-3,5-bistrifluoromethylbenzamide]",700
8,"COc1ccccc1C(CNC(=O)Nc1cc(C(F)(F)F)cc(C(F)(F)F)c1)N1C2CCCC1CC2 (stereo not drawn) [Example 176, N-3,5-Bistrifluoromethylphenyl-N'-[2-(2-methoxyphenyl)-2-(nortropan-8-yl)-ethyl]-urea]",92
9,"O=C(NCC(c1ccc(Cl)c(Cl)c1)N1CCN(C2CCCCC2)CC1)Nc1cc(C(F)(F)F)cc(C(F)(F)F)c1 (stereo not drawn) [Example 117, N-3,5-Bistrifluoromethylphenyl-N'-[2-(3,4-dichlorophenyl)-2-(4-cyclohexylpiperazine-1-yl)-ethyl]-urea]",15
10,"COc1ccccc1C(CNC(=O)Cc1ccc(Cl)c(Cl)c1)N1CCN(C2CCCCC2)CC1 (stereo not drawn) [Example 62, N-[2-(2-Methoxyphenyl)-2-(4-cyclohexylpiperazine-1-yl)-ethyl]-2-(3,4-dichlorophenyl)-acetamide]",276
11,"COc1ccccc1C(CNCCc1cc(C(F)(F)F)cc(C(F)(F)F)c1)N1CCN(C2CCCCCC2)CC1 (stereo not drawn) [Example 69, 2-(3,5-Bistrifluoromethylphenyl)-2'-(2-methoxyphenyl)-2'-(4-cycloheptylpiperazine-1-yl)-diethylamine]",16
12,"COc1ccccc1C(CNC(=O)Cc1cc(C(F)(F)F)cc(C(F)(F)F)c1)N1CCN(C2CCCCCC2)CC1 (stereo not drawn) [Example 68, N-[2-(2-Methoxyphenyl)-2-(4-cycloheptylpiperazine-1-yl)-ethyl]-2-(3,5-bistrifluoromethyl-phenyl)-acetamide]",3
13,"COc1ccccc1C(CNC(=O)Nc1cc(C(F)(F)F)cc(C(F)(F)F)c1)N1CCN(CCC2CCCCC2)CC1 (stereo not drawn) [Example 121, N-3,5-Bistrifluoromethylphenyl-N'-[2-(2-methoxyphenyl)-2-(4-(2-cyclohexylethyl)piperazine-1-yl)-ethyl]-urea]",124
14,"COc1ccccc1C(CNCc1cc(C(F)(F)F)cc(C(F)(F)F)c1)N1CC(C)CC(C)C1 (stereo not drawn) [Example 83, 3,5-Bistrifluoromethylbenzyl-[2-(2-methoxyphenyl)-2-(3,5-dimethylpiperidine-1-yl)-ethyl]-amine]",209
15,COc1ccccc1C(CNC(=O)Nc1cc(C(F)(F)F)cc(C(F)(F)F)c1)N1CCCCC1 (stereo not drawn) [Example 166],150
16,"COc1ccccc1C(CNC(=O)Nc1cc(C(F)(F)F)cc(C(F)(F)F)c1)N1CCN(C(C)C)CC1 (stereo not drawn) [Example 110, N-3,5-Bistrifluoromethylphenyl-N'-[2-(2-methoxyphenyl)-2-(4-(2-propyl)piperazin-1-yl)-ethyl]-urea]",28
17,"COc1ccccc1C(CNC(=O)Nc1cc(C(F)(F)F)cc(C(F)(F)F)c1)N1CCN(C)CC1 (stereo not drawn) [Example 107, N-3,5-Bistrifluoromethylphenyl-N'-[2-(2-methoxyphenyl)-2-(4-methylpiperazin-1-yl)-ethyl]-urea]",250
18,"O=C(NCC(c1ccccc1)N1CCN(C2CCCCC2)CC1)Nc1ccccc1Cl (stereo not drawn) [Example 113, N-2-Chlorophenyl-N'-[2-phenyl-2-(4-cyclohexylpiperazine-1-yl)-ethyl]-urea]",403
19,COc1ccccc1C(CNC(=O)Nc1cc(C(F)(F)F)cc(C(F)(F)F)c1)N1CCCC(C)C1 (stereo not drawn) [Example 169],888

# The remaining lines, values ahead:
row,Ki [nM],SMILES
1,115,O=C(NCC(c1ccccc1)N1CCN(Cc2ccccc2)CC1)Nc1cc(C(F)(F)F)cc(C(F)(F)F)c1 (stereo not drawn) [Example 146]
2,5,"COc1ccccc1C(CNCc1cc(C(F)(F)F)cc(C(F)(F)F)c1)N1CCN(C2CCCCCC2)CC1 (stereo not drawn) [Example 53, 3,5-Bistrifluoromethylbenzyl-[2-(2-methoxyphenyl)-2-(4-cycloheptylpiperazine-1-yl)-ethyl]-amine]"
3,230,"COc1ccccc1C(CNC(=O)Nc1cc(C(F)(F)F)cc(C(F)(F)F)c1)N1CCC(Cc2ccccc2)CC1 (stereo not drawn) [Example 175, N-3,5-Bistrifluoromethylphenyl-N'-[2-(2-methoxyphenyl)-2-(4-benzylpiperidin-1-yl)-ethyl]-urea]"
4,800,"FC(F)(F)c1cc(CNCC(c2ccccc2)N2CCN(c3ccccc3)CC2)cc(C(F)(F)F)c1 (stereo not drawn) [Example 3, 3,5-Bistrifluoromethylbenzyl-[2-phenyl-2-(4-phenylpiperazine-1-yl)-ethyl]-amine]"
5,23,"CCCN1CCN(C(CNCc2cc(C(F)(F)F)cc(C(F)(F)F)c2)c2ccccc2OC)CC1 (stereo not drawn) [Example 32, 3,5-Bistrifluoromethylbenzyl-[2-(2-methoxyphenyl)-2-(4-(1-propyl)-piperazine-1-yl)-ethyl]-amine]"
6,108,"COc1ccccc1C(CNCc1cc(C(F)(F)F)cc(C(F)(F)F)c1)N1CCN(C(C)c2ccccc2)CC1 (stereo not drawn) [Example 23, 3,5-Bistrifluoromethylbenzyl-[2-(2-methoxyphenyl)-2-(4-(1-phenylethyl)-piperazine-1-yl)-ethyl]-amine]"
7,52,"COc1ccccc1C(CNCc1cc(C(F)(F)F)cc(C(F)(F)F)c1)N1CCC(C)CC1 (stereo not drawn) [Example 82, 3,5-Bistrifluoromethylbenzyl-[2-(2-methoxyphenyl)-2-(4-methylpiperidine-1-yl)-ethyl]-amine]"
8,16,"COc1ccccc1C(CNCc1cc(C(F)(F)F)cc(C(F)(F)F)c1)N1CCN(C2CCCC2)CC1 (stereo not drawn) [Example 35, 3,5-Bistrifluoromethylbenzyl-[2-(2-methoxyphenyl)-2-(4-cyclopentylpiperazine-1-yl)-ethyl]-amine]"
9,93,"COc1ccccc1C(CNCc1cc(C(F)(F)F)cc(C(F)(F)F)c1)N1CCN(C)CC1 (stereo not drawn) [Example 31, 3,5-Bistrifluoromethylbenzyl-[2-(2-methoxyphenyl)-2-(4-methylpiperazine-1-yl)-ethyl]-amine]"
10,2,COc1ccccc1C(CNCc1cc(C(F)(F)F)cc(C(F)(F)F)c1)N1CCC(N2CCCCC2)CC1 (stereo not drawn) [Example 91]
11,102,"COc1ccccc1C(CNCc1cc(C(F)(F)F)cc(C(F)(F)F)c1)N1CCN(c2ccccn2)CC1 (stereo not drawn) [Example 28, 3,5-Bistrifluoromethylbenzyl-[2-(2-methoxyphenyl)-2-(4-(2-pyridyl)-piperazine-1-yl)-ethyl]-amine]"
12,38,"COc1ccccc1C(CNCc1cc(C(F)(F)F)cc(C(F)(F)F)c1)N1CCN(C(C)C)CC1 (stereo not drawn) [Example 34, 3,5-Bistrifluoromethylbenzyl-[2-(2-methoxyphenyl)-2-(4-(2-propyl)-piperazine-1-yl)-ethyl]-amine]"
13,1000,O=C(NCC(c1ccccc1)N1CCCCC1)Nc1cc(C(F)(F)F)cc(C(F)(F)F)c1 (stereo not drawn) [Example 167]
14,215,COc1ccccc1C(CNC(=O)Nc1cc(C(F)(F)F)cc(C(F)(F)F)c1)N1CCN(C(C)c2ccccc2)CC1 (stereo not drawn) [Example 151]
15,185,"FC(F)(F)c1cc(CNCC(c2ccccc2)N2CCOCC2)cc(C(F)(F)F)c1 (stereo not drawn) [Example 96, 3,5-Bistrifluoromethylbenzyl-(2-phenyl-2-morpholine-4-yl-ethyl)-amine]"
16,580,"COc1ccccc1C(CNCc1cc(C(F)(F)F)cc(C(F)(F)F)c1)N1CCN(c2ccccc2C)CC1 (stereo not drawn) [Example 19, 3,5-Bistrifluoromethylbenzyl-[2-(2-methoxyphenyl)-2-(4-(2-methylphenyl)-piperazine-1-yl)-ethyl]-amine]"
17,479,COc1ccccc1C(CNC(=O)Nc1cc(C(F)(F)F)cc(C(F)(F)F)c1)N1CCN(c2ccccn2)CC1 (stereo not drawn) [Example 156]
18,717,"COc1ccccc1C(CNC(=O)Nc1cc(C(F)(F)F)cc(C(F)(F)F)c1)N1CCN(CCc2ccccc2)CC1 (stereo not drawn) [Example 150, N-3,5-Bistrifluoromethyl-phenyl-phenyl-N'-[2-(2-methoxyphenyl-2-(4-2-phenylethyl)-piperazine-1-yl)-ethyl]-urea]"
19,333,"COc1ccccc1C(CNCc1cc(C(F)(F)F)cc(C(F)(F)F)c1)N1CCN(c2ccccc2)CC1 (stereo not drawn) [Example 1, 3,5-Bistrifluoromethylbenzyl-[2-(2-methoxyphenyl)-2-(4-phenylpiperazine-1-yl)-ethyl]-amine]"
